# The OligoGym collection
# Bases are written 5' to 3'; sugars and linkages follow in the same order, as letters with counts (s phosphorothioate, o phosphodiester; PS: all linkages phosphorothioate). The collection does not say whether C is 5-methylated. l = locked nucleic acid (LNA); d = 2'-deoxy (DNA)
# Target: Tau
# Test: rat primary cortical neurons, FLIPR, 25 uM ASO
row,Sequence,calcium oscillation score
1,"TAAATACATCAATAGAAGGC (sugars l3 d14 l3, PS)",50.4 % of control
2,"TAACCAACTTTCATCTAC (sugars l4 d10 l4, PS)",98.4 % of control
3,"TAACCAACTTTCATCTACTT (sugars l3 d14 l3, PS)",47.2 % of control
4,"TAACCAATTAACCGAA (sugars l3 d10 l3, PS)",179 % of control
5,"TAACCAATTAACCGAACTGC (sugars l3 d14 l3, PS)",125 % of control
6,"TAACCAGCTAGTGGTGCCAC (sugars l3 d14 l3, PS)",18.4 % of control
7,"TAACTCAAATCAATTCTCAT (sugars l4 d12 l4, PS)",63.9 % of control
8,"TAACTCATCAACACCTTTTA (sugars l4 d14 l2, PS)",82.6 % of control
9,"TAACTCTCCTTATCTGA (sugars l2 d11 l4, PS)",29.7 % of control
10,"TAAGGCAAGGCCTATT (sugars l3 d10 l3, PS)",27.2 % of control
11,"TAAGTGATTAACCAATTAAC (sugars l3 d14 l3, PS)",27.2 % of control
12,"TAATAGATCTTTCCCCT (sugars l2 d12 l3, PS)",103 % of control
13,"TAATAGATCTTTCCCCTC (sugars l2 d13 l3, PS)",101 % of control
14,"TAATCACTCATGCCTT (sugars l4 d8 l4, PS)",65.6 % of control
15,"TAATCACTCATGCCTTA (sugars l4 d9 l4, PS)",62.9 % of control
16,"TAATCCTACCACCAGA (sugars l2 d10 l4, PS)",86 % of control
17,"TAATCCTGTGCTTC (sugars l3 d8 l3, PS)",2.3 % of control
18,"TAATCCTGTGCTTCA (sugars l3 d9 l3, PS)",86.7 % of control
19,"TAATCCTGTGCTTCAG (sugars l3 d10 l3, PS)",75.8 % of control
20,"TAATGAGCCACACTTGGAGG (sugars l3 d14 l3, PS)",0 % of control
21,"TAATTACATTTTTTCTTTTT (sugars l4 d12 l4, PS)",58.2 % of control
22,"TAATTAGAAACCTCCT (sugars l4 d8 l4, PS)",73.3 % of control

row,Sequence,calcium oscillation score
1,"TAATTATTAAATCTTCTCTT (sugars l4 d12 l4, PS)",60.1 % of control
2,"TAATTCACACAACAAACTA (sugars l4 d11 l4, PS)",88.7 % of control
3,"TAATTCATAAATGACTATAC (sugars l3 d14 l3, PS)",72.5 % of control
4,"TAATTCATTTAATTCTCTTC (sugars l4 d12 l4, PS)",60.1 % of control
5,"TAATTCCCAAATTCCTCATA (sugars l2 d14 l4, PS)",53.9 % of control
6,"TACAATCCACTCCTCC (sugars l2 d10 l4, PS)",56.4 % of control
7,"TACACCATCCAAGTCAA (sugars l3 d10 l4, PS)",97 % of control
8,"TACACCATCCAAGTCAATGC (sugars l3 d14 l3, PS)",6.04 % of control
9,"TACACTGTCCTTTAAAC (sugars l4 d11 l2, PS)",66.1 % of control
10,"TACAGTCATTTCATTAC (sugars l4 d9 l4, PS)",64.9 % of control
11,"TACAGTTGGCCCTACCATAT (sugars l3 d14 l3, PS)",52.4 % of control
12,"TACATGCGTCCTTT (sugars l3 d8 l3, PS)",91.8 % of control
13,"TACCAATTATCTTTAAATTC (sugars l4 d12 l4, PS)",64.4 % of control
14,"TACCATGTCGATGCT (sugars l3 d9 l3, PS)",81.6 % of control
15,"TACCCATCTTAATTCATTTA (sugars l3 d14 l3, PS)",111 % of control
16,"TACCCCATTTTTGACA (sugars l3 d11 l2, PS)",60.9 % of control
17,"TACCTTTTTATTTCCTC (sugars l4 d11 l2, PS)",41.6 % of control
18,"TACTAGCCCACCCATC (sugars l3 d10 l3, PS)",≥ 200 % of control
19,"TACTAGCCCACCCATCAATT (sugars l3 d14 l3, PS)",54.4 % of control
20,"TACTATCCACTTGTTA (sugars l3 d11 l2, PS)",61.9 % of control
21,"TACTTTATTCCCTTAACAAT (sugars l2 d14 l4, PS)",91.3 % of control
